Series [1] deals with HCl/EtOH-induced gastric lesions in mice. The series can be described thus: HCl/EtOH-induced gastric lesions model in mice. Format: in vivo. The note with it: for gastroprotective activity (in words): HCl/EtOH-induced gastric lesions model in mice; for Lesion Index (mm) / % Lesion Reduction / inhibition of the appearance of gastric mucosal lesions: mice; for Lesion Index (mm) / % Lesion Reduction: oral, title: 30 mg/kg, method: meroditerpenoids 40 mg/kg, lansoprazole 30 mg/kg; for Lesion Index (mm): mean ± sd, n = 7; for % Lesion Reduction: versus control; for inhibition of the appearance of gastric mucosal lesions: oral administration at 40 mg/kg. The procedure:
The gastroprotective activity of the compounds 4a–5a, and 9, 11 was assessed in the HCl/EtOH-induced lesion model as described previously. Mice were randomly distributed into groups of seven animals each and fasted for 12 h with free access to water prior to the experiment. Fifty min after oral administration of the meroditerpenoids (40 mg/kg), lansoprazole (30 mg/kg) or 1% Tween 80 (10 mL/kg), all groups were orally treated with 0.2 mL of a solution containing 0.3 M HCl/60% ethanol (HCl/EtOH) for gastric lesion induction. Animals were sacrificed 1 h after the administration of HCl/EtOH, and the stomachs were excised and inflated by injection of saline (1 mL). The ulcerated stomachs were fixed in 5% formalin for 30 min and opened along the greater curvature. […] The length (mm) of each lesion was measured, and the lesion index was expressed as the sum of the length of all lesions.

A short description of series [2]: Cytotoxicity MTT assay, fibroblasts. The series is classed as cell-based, human. The following applies: human, MRC fibroblasts, 48 h incubation. The procedure: (§1) The cytotoxic assay expressed as cell viability was conducted using MTT assay method. Cells at a density of 3 × 10^4 of MRC fibroblasts or AGS cells were plated in 96-well culture dishes. Compounds were assayed at concentrations ranging from 0 up to 500 μM. Incubated at 37 °C in humidified CO2 incubator for 24 h. After incubation, various concentrations in DMSO solvent of the compounds were added. Each compound was tested in quadruplicate and repeated three times. After 48 h incubation, assay was stop by adding MTT reagent (3-(4,5dimethylthiazol-2-yl)-2,5-diphenyltetrazolium bromide) and the incubation continue for next 4 h before the addition of MTT stop solution containing sodium dodecyl sulphate (SDS), the incubation continue for next 24 h. optical density was measured using microplate reader at 550 nm. IC50 value obtained from the plotted graph between percentage live cells compared to control.

Series [3] relates to HCl/EtOH-induced gastric lesions in NEM-pretreated mice. The series can be described thus: HCl/EtOH-induced gastric lesions in N-ethylmaleimide (NEM)-pretreated mice. Format: in vivo. The note with it: NEM 10 mg/kg s.c. 30 min before, 1a 35 mg/kg, 3a 40 mg/kg oral. The procedure:
(§2) To investigate the involvement of sulfhydryl compounds (SHs) in the gastroprotective effect of 1a and 3a, NEM s.c. (10 mg/kg, an SH blocker was dissolved in saline) was injected 30 min before administration of 1a, 3a or vehicle (NEM-treated). Fifty min after oral administration of 1a (35 mg/kg), 3a (40 mg/kg) or vehicle, all groups were orally treated with 0.2 mL of a solution containing 0.3 M HCl/60% ethanol (HCl/EtOH) for gastric lesion induction. Animals were sacrificed 1 h after the administration of HCl/EtOH, and the stomachs were excised and inflated by injection of saline (1 mL). The gastric mucosal lesions were induced and the length of gastric lesions was measured as described above.

Series [4] deals with HCl/EtOH-induced gastric lesions in L-NAME-pretreated mice. The series can be described thus: HCl/EtOH-induced gastric lesions in L-NAME-pretreated mice. The series is classed as in vivo. The following applies: L-NAME 70 mg/kg i.p. 30 min before, 1a 35 mg/kg, 3a 40 mg/kg oral. Here is the method:
as §2, with “endogenous nitric oxide (NO)” for “sulfhydryl compounds (SHs)”, “L-NAME i.p. (70” for “NEM s.c. (10”, “inhibitor of NO synthase” for “SH blocker”, “(L-NAME-treated).” for “(NEM-treated).”

In series [5] the test system is HCl/EtOH-induced gastric lesions in indomethacin-pretreated mice. Description: HCl/EtOH-induced gastric lesions in indomethacin-pretreated mice. The following applies: indomethacin 30 mg/kg s.c. 30 min before, 1a 35 mg/kg, 3a 40 mg/kg oral. Format: in vivo. Here is the method:
as §2, with “endogenous prostaglandins” for “sulfhydryl compounds (SHs)”, “indomethacin” for “NEM”, “(30” for “(10”, “inhibitor of the prostaglandin synthesis” for “SH blocker”, “5% NaHCO3)” for “saline)”, “(IND-treated).” for “(NEM-treated).”

A short description of series [6]: Cytotoxicity MTT assay, AGS cells. The series is classed as cell-based, human. The note with it: human, AGS cells (human gastric epithelial cells), 48 h incubation. Here is the method: as §1
The test system of series [7] is HCl/EtOH-induced gastric lesions in RR-pretreated mice. The series can be described thus: HCl/EtOH-induced gastric lesions in ruthenium red (RR)-pretreated mice. The series is classed as in vivo. The following applies: RR 3.5 mg/kg s.c. 30 min before; 1a 35 mg/kg, 3a 40 mg/kg oral. The procedure:
as §2, with “vanilloid receptor” for “sulfhydryl compounds (SHs)”, “RR” for “NEM”, “(3.5” for “(10”, “a vanilloid receptor antagonist” for “an SH blocker”, “(RR-treated).” for “(NEM-treated).”

Series [8] relates to HCl/EtOH-induced gastric lesions in mice. Further details: method as in PMID 21922901. The following applies: cited from earlier work.
Series [9] has as its system human fibroblast (MRC fibroblasts). The series can be described thus: Cytotoxicity MTT assay, fibroblasts. The following applies: 48 h incubation. Format: cell-based. Here is the method:
as §1
A general note: Formazan colour is commonly taken as a measure of viable cells.

Series [10] deals with human epithelial gastric cells (AGS). The series can be described thus: Cytotoxicity MTT assay, AGS cells. Format: cell-based. The note with it: 48 h incubation. Here is the method:
as §1

Entries after “also recorded” stand apart in the source; their conditions may differ. Marks after values point to notes of the source that are not given here.

One may read the IC50 as the concentration at which inhibition is half-maximal. Read a low IC50 as higher potency.

As to `CC(C)=CCC/C(C)=C/CC/C(C)=C/CC[C@]1(C)C=Cc2cc(O)cc(C)c2O1` [Compound 1a, sargaol], the “gastroprotective activity (in words)” value in series [1] is reported as “exhibited gastroprotective activity”. Further, the “Lesion Index (mm)” value in [1] is reported as 20.0 ± 3.6 mm. For the same compound, the “% Lesion Reduction” value in series [1] was 52 * %. Besides, the IC50 at 48 h in series [2] was found to be 12 ± 3 µM; in [6] it was 18 ± 4 µM. In addition, the “effect of NEM pre-treatment on the gastroprotective effect” value in series [3] is on record as “reduced; also recorded: reversed significantly”; in [3] (listed as sargaol) it was “attenuated”. The “effect of L-NAME pre-treatment on the gastroprotective effect” value in series [4] is recorded as “has not attenuated”. Further, the “effect of indomethacin pre-treatment on the gastroprotective effect” value is recorded as “reversed significantly” in series [5] and “attenuated” in series [5] (listed as sargaol). The “effect of ruthenium red pre-treatment on the gastroprotective effect” value in series [7] was “did not reduce”. For the same compound, in series [8], the “gastroprotective activity ED50” value is recorded as 35 mg/kg.

As for `Cc1cc(O)cc2c1OC1(C)CCC3C(C)(CCC4C(C)(C)C(O)CCC43C)C1C2` (stereo not drawn) [Compound 3a, epitaondiol], the “gastroprotective activity (in words)” value in [1] is on record as “exhibited gastroprotective activity”. Also, in series [1], the “Lesion Index (mm)” value turned out to be 16.7 ± 3.1 mm. Moreover, the “% Lesion Reduction” value in [1] is given as 60 * %. This compound came in with an IC50 in series [9] of 19 ± 4 µM. Moreover, the results for the “effect of NEM pre-treatment on the gastroprotective effect” value in series [3] and in series [3] (listed as epitaondiol) were “reduced” and “reversed significantly”, respectively. Also, the “effect of L-NAME pre-treatment on the gastroprotective effect” value in series [4] is “reduced”; in series [4] (listed as epitaondiol) it was “reversed significantly”. Moreover, the “effect of indomethacin pre-treatment on the gastroprotective effect” value is on record as “attenuated” in series [5] and “reversed significantly” in series [5] (listed as epitaondiol). The compound also returned an IC50 at 48 h in [6] of 29 ± 3 µM. Moreover, in [7], the “effect of ruthenium red pre-treatment on the gastroprotective effect” value was “did not reduce”. For the same compound, the “gastroprotective activity ED50” value in [8] was 40 mg/kg.

Take `Cc1cc(O)cc2c1OC1(C2)C(C)CCC2C3(C)CCC(O)C(C)(C)C3CCC21C` (stereo not drawn) [Compound 4a, stypodiol]: in series [1], the “gastroprotective activity (in words)” value is given as “gastroprotective activity in similar way than positive control”, the “inhibition of the appearance of gastric mucosal lesions” value stood at 69%, the “Lesion Index (mm)” value is given as 13.0 ± 4.0 mm and the “% Lesion Reduction” value is given as 69 * %. Besides, the “gastroprotective activity (in words)” value in [1] (listed as stypodiol) is “exhibited gastroprotective activity”. The same compound displayed an IC50 at 48 h in series [2] of 215 ± 8 µM. For the same compound, the IC50 at 48 h in [6] was 153 ± 9 µM.

Turning to `Cc1cc(O)cc2c1OC1(C)CCC3C(C)(CCC4C(C)(C)C(O)CCC43C)C1C2` (stereo not drawn) [Compound 5a, isoepitaondiol], in series [1], the “gastroprotective activity (in words)” value is “gastroprotective activity in similar way than positive control”, the “inhibition of the appearance of gastric mucosal lesions” value came out at 78%, the “Lesion Index (mm)” value was found to be 9.1 ± 3.6 mm and the “% Lesion Reduction” value is reported as 78 * %. Further, the “gastroprotective activity (in words)” value in series [1] (listed as isoepitaondiol) is “exhibited gastroprotective activity”. The same compound displayed an IC50 in series [9] of 65 ± 3 µM. In series [10], this compound displayed an IC50 of 42 ± 2 µM.

As for `COc1c(C)cc(OC(C)=O)cc1CC1C(C)CCC2C3(C)CCC(OC(C)=O)C(C)(C)C3=CCC12C` (stereo not drawn) [Compound 7, O,C(3)-seco-9-ene-6β-taondiol diacetate], the IC50 at 48 h was determined as 102 ± 6 µM in series [2] and 85 ± 5 µM in series [6].

For the compound `CC(=O)Oc1c(Cl)c(C)c2c(c1OC(C)=O)CC1(O2)C(C)CCC2C3(C)CCC(OC(C)=O)C(C)(C)C3CCC21C` (stereo not drawn) [Compound 8, 4'-chlorostypotriol triacetate], the IC50 at 48 h in series [2] was 12 ± 1 µM; in series [6], 11 ± 1 µM.

As for `CC(=O)Oc1cc(C)c2c(c1OC(C)=O)CC1(O2)C(C)CCC2C3(C)CCC(OC(C)=O)C(C)(C)C3CCC21C` (stereo not drawn) [Compound 9, stypotriol triacetate], in series [1], the “gastroprotective activity (in words)” value was “inactive”, the “Lesion Index (mm)” value is recorded as 36.4 ± 5.2 mm and the “% Lesion Reduction” value was 12%. 21 ± 5 µM corresponded to half-maximal inhibition in [2] (IC50 at 48 h). Further, the IC50 at 48 h in [6] worked out at 14 ± 3 µM.

Consider `CC(=O)Oc1cc(C)c2c(c1OC(C)=O)CC1(O2)C(C)CCC2C3(C)CCC(=O)C(C)(C)C3CCC21C` (stereo not drawn) [Compound 11, 14-ketostypodiol diacetate], for which, in series [1], the “gastroprotective activity (in words)” value is “inactive”, the “Lesion Index (mm)” value came out at 37.9 ± 7.3 mm and the “% Lesion Reduction” value is 9%. The compound also showed an IC50 at 48 h in [2] of 102 ± 6 µM. Also, it took 65 ± 4 µM to reach half-maximal inhibition in series [6] (IC50 at 48 h).

With `Cc1c(OCC(F)(F)F)ccnc1C[S+]([O-])c1nc2ccccc2[nH]1` (stereo not drawn) [Lansoprazole, lansoprazole, reference compound], in series [1], the “Lesion Index (mm)” value was determined as 14.1 ± 3.6 mm and the “% Lesion Reduction” value was 66 * %. In series [2], this compound yielded an IC50 at 48 h of 392 ± 6 µM. The same compound yielded an IC50 at 48 h in series [6] of 198 ± 5 µM.

(Values after publication PMC4413184, “Seco-Taondiol, an Unusual Meroterpenoid from the Chilean Seaweed Stypopodium flabelliforme and Its Gastroprotective Effect in Mouse Model” (Marine Drugs, 2015).)
